Experimental data: patent publication US8569298B2, “Pyridine compounds” (Astrazeneca AB, priority 2008, dated 2013)

target: T1, FAK enzyme (6 His tagged kinase domain, GenBank NP—722560) (Homo sapiens, UniProt Q05397); assay: In vitro enzyme assay (a): sandwich ELISA of FAK tyrosine kinase activity on polyGAT peptide, TMB colorimetric endpoint; assay type: biochemical; conditions: in vitro Enzyme Assay test (a); ATP at Km; geometric mean of n > 1 measurements, values marked * tested once
T1 construct: 6 His; made in house; host or cells: insect cell culture infected with baculovirus
Experimental: (a) In Vitro Enzyme Assay
A sandwich ELISA assay with a 3,3′,5,5′-tetramethyl benzidine (TMB) colorimetric endpoint was used in order to determine the level of effect of selected compounds on inhibition of FAK protein tyrosine kinase enzyme activity. A synthetic tyrosine containing peptide is coated onto a plastic surface, the level of phosphorylation of these tyrosine residues by the kinase enzyme in the presence of inhibitors is measured using an antibody that binds specifically to phosphorylated tyrosine residues. The amount of antibody bound to substrate is proportional to the level of enzyme catalysis.
Assay Protocol to Identify Inhibitors of Focal Adhesion Kinase (FAK).
A PlateMate Plus™ 384 automated liquid handling unit with a 100 μl disposable tip head was used to make all the non compound reagent additions and a Tecan 384PW plate washer with 384 head was used for all wash steps. Initially Matrix 384 well polystyrene plates (Cat #:4311) were coated with 40 μl/well of a 0.0375 mg/ml solution of synthetic poly peptide (polyGAT, Sigma Cat #:P3899) dissolved in phosphate buffered saline (PBS). Plates were stored overnight at 4° C. Immediately before use the coating solution was aspirated out and each well washed with 2×100 μl of PBS+0.05% Tween 20. To remove surplus phosphate, the wells were then washed with 2×100 μl 50 mM HEPES buffer pH 7.4. Plates were blotted dry before the addition of compounds. Compounds were tested over a 12 point dose range, a Labcyte Echo 550 was used to dispense compounds in nl volumes and back fill with DMSO. The final concentration of compound in the assay was dependent on the starting concentration of compound. For a 10 mM stock compound the final assay dose ranged from 100 μM down to […]. Control wells containing 120 nl DMSO (Max) or 120 nl of 10 mM staurosporine (LC Laboratories, Boston, USA Cat #: S-9300) (Min) were included in each plate. 10 ul of 5% dimethyl sulfoxide v/v (DMSO, Fisher Scientific) was added to each well immediately prior to addition of 10 μl of a co-factor solution containing 80 mM MgCl2 (Sigma Cat #: M1028); 80 mM MnCl2 (Sigma Cat #: M1787); ATP at a concentration calculated to enable the initial reaction velocity to progress at half the maximum velocity (Km for ATP) (Sigma Cat #:A7699). A final addition of 20 μl of enzyme solution containing 100 mM HEPES pH7.4; 0.2 mM sodium vanadate (Sigma Cat #:S6508); 0.2 g/l bovine serum albumin (BSA, Sigma Cat #: A7888); 0.2 mM dithioreitol (Sigma Cat #: 5545); 0.1% Triton X100 (Sigma Cat #:X100); FAK enzyme (20 μl/ml) was made to each well to start the assay running FAK enzyme was generated from an insect culture infected with baculo virus containing the DNA sequence encoding the 6 His tagged kinase domain (GenBank NP_722560).
Plates were left at room temperature for 25 minutes before 10 μl of 500 mM ethylenediaminetetraacetic acid (EDTA) was added to stop the assay and the wells were immediately washed 3×100 μl with PBS+0.05% Tween 20. A 4G10 antibody (Millipore Cat #: 16-105; 16-184) with a directly conjugated horse radish peroxidase (HRP) was used to detect the phosphorylation of the substrate by the FAK. 40 μl of PBS+0.05% Tween 20 containing 0.5% BSA and 0.1 μl/ml antibody was added to each well and left for 1 hour at room temperature to allow the antibody to bind. After this period the wells were again washed with 3×100 μl of PBS+0.05% Tween 20. TMB (Sigma Cat #: T2885) was used as a substrate for the HRP. Phosphate-citrate buffer was made up using capsules provided by Sigma (Cat #: P4922) following the manufacturers guidelines. TMB was dissolved at a concentration of 1 mg/ml in DMSO and let down to a final concentration of 0.05 mg/ml with the phosphor-citrate buffer. 40 μl of the TMB solution was added to each assay well and left for 30 minutes for the blue colour to develop. […]

T1 sequence (Q05397 422-680 limits assumed): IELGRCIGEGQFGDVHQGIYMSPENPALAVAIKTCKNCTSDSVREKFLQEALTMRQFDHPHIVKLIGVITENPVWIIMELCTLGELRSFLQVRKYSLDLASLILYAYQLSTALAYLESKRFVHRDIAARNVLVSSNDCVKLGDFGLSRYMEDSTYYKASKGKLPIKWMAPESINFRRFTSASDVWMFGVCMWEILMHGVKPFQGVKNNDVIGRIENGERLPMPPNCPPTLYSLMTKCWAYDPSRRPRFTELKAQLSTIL

Point of comparison: `CNC(=O)c1ccccc1Nc1cc(Nc2cn(C)nc2C)ncc1C#N` [Example 1.01, 2-[[5-Cyano-2-[(1,3-dimethylpyrazol-4-yl)amino]-4-pyridyl]amino]-N-methyl-benzamide], IC50 0.065 µM. Against it:
- CNC(=O)c1ccccc1Nc1cc(Nc2cc(OC)nn2C)ncc1C#N [Example 1.02, 2-[[5-cyano-2-[(5-methoxy-2-methylpyrazol-3-yl)amino]pyridin-4-yl]amino]-N-methylbenzamide] — 1.6-fold higher, 0.102 µM
- CON(C)C(=O)c1ccccc1Nc1cc(Nc2cn(C)nc2C)ncc1C#N [Example 1.03, 2-[[5-Cyano-2-[(1,3-dimethylpyrazol-4-yl)amino]-4-pyridyl]amino]-N-methoxy-N-methyl-benzamide] — 8.5-fold higher, 0.554 µM
- CN1CCc2cccc(Nc3cc(Nc4cnn(C)c4)ncc3C#N)c2C1=O [Example 1.04, 4-[(2-Methyl-1-oxo-3,4-dihydroisoquinolin-8-yl)amino]-6-[(1-methylpyrazol-4-yl)amino]pyridine-3-carbonitrile] — 4.6-fold lower, 0.014 µM
- Cc1cc(Nc2cc(Nc3cccc4c3C(=O)N(C)CC4)c(C#N)cn2)nn1C [Example 1.05, 6-[(1,5-dimethylpyrazol-3-yl)amino]-4-[(2-methyl-1-oxo-3,4-dihydroisoquinolin-8-yl)amino]pyridinc-3-carbonitrile] — 16-fold lower, 0.004 µM
- COc1cc(Nc2cc(Nc3cccc4c3C(=O)N(C)CC4)c(C#N)cn2)n(C)n1 [Example 1.06, 6-[(5-methoxy-2-methylpyrazol-3-yl)amino]-4-[(2-methyl-1-oxo-3,4-dihydroisoquinolin-8-yl)amino]pyridine-3-carbonitrile] — 3.2-fold lower, 0.02 µM
- CN1CCC(n2cc(Nc3cc(Nc4cccc5c4C(=O)N(C)CC5)c(C#N)cn3)cn2)CC1 [Example 1.07, 4-[(2-methyl-1-oxo-3,4-dihydroisoquinolin-8-yl)amino]-6-[[1-(1-methyl-4-piperidyl)pyrazol-4-yl]amino]pyridine-3-carbonitrile] — 2-fold higher, 0.128 µM
- Cc1nn(C)cc1Nc1cc(Nc2cccc3c2C(=O)N(C)CC3)c(C#N)cn1 [Example 1.08, 6-[(1,3-dimethylpyrazol-4-yl)amino]-4-[(2-methyl-1-oxo-3,4-dihydroisoquinolin-8-yl)amino]pyridine-3-carbonitrile] — 11-fold lower, 0.006 µM
- Cc1nn(C)cc1Nc1cc(Nc2ccc(N3CCN(C(C)C)CC3)c3c2C(=O)N(C)C3)c(C#N)cn1 [Example 1.09, 6-[(1,3-Dimethylpyrazol-4-yl)amino]-4-[[7-(4-isopropylpiperazin-1-yl)-2-methyl-3-oxo-isoindolin-4-yl]amino]pyridine-3-carbonitrile] — 3.4-fold lower, 0.019 µM
- CNC(=O)c1ccccc1Nc1cc(Nc2cc(C)n(C)n2)ncc1C(F)(F)F [Example 2.01, 2-[[2-[(1,5-Dimethylpyrazol-3-yl)amino]-5-(trifluoromethyl)-4-pyridyl]amino]-N-methyl-benzamide] — 3.4-fold lower, 0.019 µM
- CNC(=O)c1ccccc1Nc1cc(Nc2cn(C)nc2C)ncc1C(F)(F)F [Example 2.02, 2-[[2-[(1,3-dimethylpyrazol-4-yl)amino]-5-(trifluoromethyl)-4-pyridyl]amino]-N-methyl-benzamide] — 8.1-fold lower, 0.008 µM
- CONC(=O)c1ccccc1Nc1cc(Nc2cn(C)nc2C)ncc1Cl [Example 3.01, 2-[[5-Chloro-2-[(1,3-dimethylpyrazol-4-yl)amino]-4-pyridyl]amino]-N-methoxy-benzamide] — within 1.5-fold, 0.044 µM
- CONC(=O)c1ccccc1Nc1cc(Nc2cc(C)n(C)n2)ncc1Cl [Example 3.02, 2-[[5-chloro-2-[(1,5-dimethylpyrazol-3-yl)amino]-4-pyridyl]amino]-N-methoxy-benzamide] — 1.6-fold lower, 0.041 µM
- CNC(=O)c1ccccc1Nc1cc(Nc2cnn(CC(=O)N3CCCC3)c2)ncc1Cl [Example 3.03, 2-[[5-Chloro-2-[[1-(2-oxo-2-pyrrolidin-1-yl-ethyl)pyrazol-4-yl]amino]-4-pyridyl]amino]-N-methyl-benzamide] — within 1.5-fold, 0.08 µM
